Measurements from patent US20120115852A1, “HETEROCYCLIC COMPOUNDS AS AUTOTAXIN INHIBITORS” (Merck Patent Gesellschaft Mit Beschrankter Haftung, priority 2009, published 2012).

Biological target: T1, recombinant autotaxin (Homo sapiens, UniProt Q13822)
T1 construct: made in house; host or cells: Hi5 insect cells (baculovirus)
Assay: Autotaxin test (enzyme test), Amplex Red fluorescence with LPC substrate
Format: biochemical
Conditions: autotaxin inhibition (enzyme test); for remaining activity at 10 µM: 10 μM compound, read-out: % Control at 10 μM
How it was run: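 Purified recombinant autotaxin (baculovirus Hi5-expressed) pre-incubated with compound 30 min at 22° C, then LPC (final 75 μM) added and reacted 90 min at 37° C in Tris pH 8 buffer with CaCl2. Choline released was coupled via alkaline phosphatase, choline oxidase and peroxidase to Amplex Red; resorufin fluorescence read in kinetic mode (ex 485/em 612 nm).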

| Compound | remaining activity at 10 µM [%] | IC50 [µM] |
| --- | --- | --- |
| O=C1Nc2ccc(-c3ccc4c(c3)OCO4)cc2C(=O)N2CCN(C(=O)[C@@H]3CSCN3)C[C@H]12 [Compound B9] | 74 |  |
| O=C1Nc2ccc(-c3ccc(Cl)cc3)cc2C(=O)N2CCN(C(=O)CO)C[C@H]12 [Compound B14] | 80 |  |
| CC(C)(C)CC(=O)N1CCN2C(=O)c3cc(-c4ccc(C(F)(F)F)cc4F)ccc3NC(=O)C2C1 (stereo not shown) [Compound A84, 2-(3,3-Dimethylbutyryl)-7-(2-fluoro-4-trifluoromethyl-phenyl)-1,3,4,11a-tetrahydro-2H,10H-2,4a,10-triazadibenzo[a,d]cycloheptene-5,11-dione] | 29 |  |
| Cc1nc(C)c(C(=O)N2CCN3C(=O)c4cc(-c5ccc(Cl)cc5)ccc4NC(=O)C3C2)s1 (stereo not shown) [Compound A73, 7-(4-Chlorophenyl)-2-(2,4-dimethylthiazole-5-carbonyl)-1,3,4,11a-tetrahydro-2H,10H-2,4a,10-triazadibenzo[a,d]cycloheptene-5,11-dione] | 78 |  |
| CC(C)(C)CC(=O)N1CCN2Cc3cc(-c4ccccc4F)ccc3NC(=O)C2C1 (stereo not shown) [Compound 26, 2-(3,3-dimethylbutyryl)-7-(2-fluorophenyl)-1,3,4,5,10,11a-hexahydro-2H-2,4-a,10-triazadibenzo[a,d]cyclohepten-11-one] | 73 | > 1 |
| CC(C)(C)CC(=O)N1CCN2C(=O)c3cc(-c4ccc(Cl)cc4F)ccc3NC(=O)[C@@H]2C1 [Compound A125, (S)-7-(4-Chloro-2-fluorophenyl)-2-(3,3-dimethyl-butyryl)-1,3,4,11a-tetrahydro-2H,10H-2,4a,10-triazadibenzo[a,d]cycloheptene-5,11-dione] | 25 | > 1 |
| O=C1Nc2ccc(-c3ccc(Cl)cc3)cc2C(=O)N2CCN(C(=O)c3c(C(F)(F)F)nc4ccccn34)CC12 (stereo not shown) [Compound A72, 7-(4-Chlorophenyl)-2-(2-trifluoromethylimidazo[1,2-a]pyridine-3-carbonyl)-1,3,4,11a-tetrahydro-2H,10H-2,4a,10-triazadibenzo[a,d]cycloheptene-5,11-dione] | 70 | > 1 |
| CC(C)(C)CC(=O)N1CCN2C(=O)c3cc(-c4ccc(F)cc4F)ccc3NC(=O)C2C1 (stereo not shown) [Compound A91, 7-(2,4-Difluorophenyl)-2-(3,3-dimethylbutyryl)-1,3,4,11a-tetrahydro-2H,10H-2,4a,10-triaza-dibenzo[a,d]cycloheptene-5,11-dione] | -6 | > 1 |
| O=C1Nc2ccc(-c3ccc(Cl)cc3F)cc2C(=O)N2CCN(C(=O)Cc3ccccc3)CC12 (stereo not shown) [Compound A31, 7-(4-Chloro-2-fluorophenyl)-2-phenylacetyl-1,3,4,11a-tetrahydro-2H,10H-2,4a,10-triaza-dibenzo[a,d]cycloheptene-5,11-dione] | 17 | > 1 |
| CN(C)CCN1CCC[C@H]1C(=O)N1CCN2C(=O)c3cc(-c4ccc(Cl)cc4F)ccc3NC(=O)C2C1 (stereo partly drawn) [Compound A115, 7-(4-Chloro-2-fluorophenyl)-2-[(S)-1-(2-dimethyl-aminoethyl)pyrrolidine-2-carbonyl]-1,3,4,11a-tetrahydro-2H,10H-2,4a,10-triaza-dibenzo[a,d]cycloheptene-5,11-dione] | 80 | > 1 |
| CC(C)(C)CC(=O)N1CCN2C(=O)c3cc(-c4ccccc4Cl)ccc3NC(=O)C2C1 (stereo not shown) [Compound A103, 7-(2-Chlorophenyl)-2-(3,3-dimethylbutyryl)-1,3,4,11a-tetrahydro-2H,10H-2,4a,10-triaza-dibenzo[a,d]cycloheptene-5,11-dione] | -10 | > 1 |
| Cc1ccc(-c2ccc3c(c2)C(=O)N2CCN(C(=O)CC(C)(C)C)CC2C(=O)N3)cc1 (stereo not shown) [Compound A105, 2-(3,3-Dimethylbutyryl)-7-p-tolyl-1,3,4,11a-tetrahydro-2H,10H-2,4a,10-triaza-dibenzo[a,d]cycloheptene-5,11-dione] | 22 | > 1 |
| N[C@@H](CO)C(=O)N1CCN2C(=O)c3cc(-c4ccc(Cl)cc4F)ccc3NC(=O)[C@H]2C1 [Compound A122, (R)-2-((S)-2-Amino-3-hydroxypropionyl)-7-(4-chloro-2-fluorophenyl)-1,3,4,11a-tetrahydro-2H,10H-2,4a,10-triazadibenzo[a,d]cycloheptene-5,11-dione] | 69 |  |
| O=C1Nc2ccc(-c3ccc(Cl)cc3)cc2C(=O)N2CCN(C(=O)C(O)c3ccc(Cl)cc3)CC12 (stereo not shown) [Compound A38, 7-(4-Chlorophenyl)-2-[2-(4-chlorophenyl)-2-hydroxyacetyl]-1,3,4,11a-tetrahydro-2H,10H-2,4a,10-triazadibenzo[a,d]cycloheptene-5,11-dione] | 35 | > 1 |
| CN(C)CCN1C(=O)C2CN(C(=O)CC(C)(C)C)CCN2C(=O)c2cc(-c3ccc(Cl)cc3)ccc21 (stereo not shown) [Compound A134, 7-(4-Chlorophenyl)-10-(2-dimethylaminoethyl)-2-(3,3-dimethylbutyryl)-1,3,4,11a-tetrahydro-2H,10H-2,4a,10-triazadibenzo[a,d]cycloheptene-5,11-dione] | -19 | > 1 |

Results, then the compound that gave them:

| remaining activity at 10 µM [%] | IC50 [µM] | Compound |
| --- | --- | --- |
| 8 | 0.1 to 1 | O=C1Nc2ccc(-c3ccc(Cl)cc3F)cc2C(=O)N2CCN(C(=O)[C@@H]3CCCN3C3CCOCC3)C[C@H]12 [Compound A120, (R)-7-(4-Chloro-2-fluorophenyl)-2-[(S)-1-(tetrahydro-pyran-4-yl)pyrrolidine-2-carbonyl]-1,3,4,11a-tetra-hydro-2H,10H-2,4a,10-triazadibenzo[a,d]-cycloheptene-5,11-dione] |
| 10 | 0.1 to 1 | NC(=O)CN1C(=O)[C@H]2CN(C(=O)[C@@H]3CCCN3C3CCNCC3)CCN2C(=O)c2cc(-c3ccc(Cl)cc3F)ccc21 [Compound A155] |
| 27 | > 1 | CC(C)[C@H](N)C(=O)N1CCN2C(=O)c3cc(-c4ccc(Cl)cc4F)ccc3NC(=O)[C@@H]2C1 [Compound A62, (S)-2-((S)-2-Amino-3-methylbutyryl)-7-(4-chloro-2-fluorophenyl)-1,3,4,11a-tetrahydro-2H,10H-2,4a,10-triazadibenzo[a,d]cycloheptene-5,11-dione] |
| 7 | 0.1 to 1 | CN(C)CCN1C(=O)[C@H]2CN(C(=O)[C@@H]3CCCN3C3CCNCC3)CCN2C(=O)c2cc(-c3ccc(Cl)cc3F)ccc21 [Compound A156] |
| 27 | > 1 | CN1CCN(C(=O)CN2C(=O)[C@H]3CN(C(=O)[C@@H]4CCCN4C4CCNCC4)CCN3C(=O)c3cc(-c4ccc(Cl)cc4F)ccc32)CC1 [Compound A154] |
| 16 | > 1 | CN(C)CCN1C(=O)[C@H]2CN(C(=O)CC(C)(C)C)CCN2C(=O)c2cc(-c3ccc(Cl)cc3F)ccc21 [Compound A151] |
| 59 | > 1 | O=C1Nc2ccc(-c3ccc(Cl)cc3)cc2C(=O)N2CCN(C(=O)c3ccccc3)CC12 (stereo not shown) [Compound B27] |
| 48 | > 1 | O=C1Nc2ccc(-c3ccc(Cl)cc3F)cc2C(=O)N2CCN(C(=O)n3ccnc3)C[C@H]12 [Compound 41, (R)-7-(4-Chloro-2-fluorophenyl)-2-(imidazole-1-carbonyl)-1,3,4,11a-tetrahydro-2H,10H-2,4a,10-triazadibenzo[a,d]cycloheptene-5,11-dione] |
| 22 | > 1 | O=C1Nc2ccc(-c3ccc(Cl)cc3)cc2C(=O)N2CCN(C(=O)OCc3ccccc3)CC12 (stereo not shown) [Compound 40, Benzyl 7-(4-chlorophenyl)-5,11-dioxo-3,4,5,10,11,11a-hexahydro-1H-2,4a,10-triazadibenzo[a,d]cycloheptene-2-carboxylate] |
| 13 | > 1 | CC(C)(C)CC(=O)N1CCN2C(=O)c3cc(-c4cc(Cl)ccc4F)ccc3NC(=O)C2C1 (stereo not shown) [Compound A85, 7-(5-Chloro-2-fluorophenyl)-2-(3,3-dimethylbutyryl)-1,3,4,11a-tetrahydro-2H,10H-2,4a,10-triaza-dibenzo[a,d]cycloheptene-5,11-dione] |
| 3 | > 1 | O=C1Nc2ccc(-c3ccc(Cl)cc3)cc2C(=O)N2CCN(C(=O)C3CCCN3C(=O)Nc3ccc(Cl)cc3)CC12 (stereo not shown) [Compound A111, N-(4-Chlorophenyl)-2-[7-(4-chlorophenyl)-5,11-dioxo-3,4,5,10,11,11a-hexahydro-1H-2,4a,10-triaza-dibenzo[a,d]cycloheptene-2-carbonyl]pyrrolidine-1-carboxamide] |
| 45 | > 1 | NCCN1CCC[C@H]1C(=O)N1CCN2C(=O)c3cc(-c4ccc(Cl)cc4F)ccc3NC(=O)[C@H]2C1 [Compound A119, (R)-2-[(S)-1-(2-Aminoethyl)pyrrolidine-2-carbonyl]-7-(4-chloro-2-fluorophenyl)-1,3,4,11a-tetrahydro-2H,10H-2,4a,10-triazadibenzo[a,d]cycloheptene-5,11-dione] |
| -10 | > 1 | C#Cc1ccc(-c2ccc3c(c2)C(=O)N2CCN(C(=O)CC(C)(C)C)CC2C(=O)N3)cc1 (stereo not shown) [Compound A140, 2-(3,3-Dimethylbutyryl)-7-(4-ethynylphenyl)-1,3,4,11a-tetrahydro-2H,10H-2,4a,10-triaza-dibenzo[a,d]cycloheptene-5,11-dione] |
| 3 | 0.1 to 1 | CC(C)(C)CC(=O)N1CCN2C(=O)c3cc(-c4ccc(Cl)cc4F)ccc3N(CCN3CCOCC3)C(=O)C2C1 (stereo not shown) [Compound A143] |
| -13 | 0.1 to 1 | CC(C)(C)CC(=O)N1CCN2C(=O)c3cc(-c4ccc(Cl)c(Cl)c4)ccc3NC(=O)C2C1 (stereo not shown) [Compound A104, 7-(3,4-Dichlorophenyl)-2-(3,3-dimethylbutyryl)-1,3,4,11a-tetrahydro-2H,10H-2,4a,10-triaza-dibenzo[a,d]cycloheptene-5,11-dione] |
